Experimental data published in US20240166624A1, “PPARG INVERSE AGONISTS AND USES THEREOF” (Flare Therapeutics Inc., priority 2021, published 2024).

Key:
[1] = molecular target: T1, PPARG/RXRA LBD heterodimer (Homo sapiens, UniProt P37231); experiment: PPARγ-NCOR1 recruitment assay (TR-FRET, biotinylated NCOR1 ID2 peptide); format: biochemical; conditions: 80 nM Rosiglitazone, 3 hours, read-out: PPARG-NCOR recruitment assay EC50
T1 construct: His-TEV-Q203-Y477; Uniprot ID P37231-2; made in house; host or cells: E. coli
Description: PPARγ-NCOR1 Recruitment Assay:
Compound potency (EC50) and maximal extent of NCOR1 recruitment to PPARG were assessed a TR-FRET binding assay measuring association of a biotinylated NCOR1 ID2 peptide (Biotin-[…]-amide) to PPARG/RXRA LBD heterodimer. Specifically, a 20 microliters of TR-FRET master mix consisting of 2 nM WT PPARG LBD (E. coli expressed, His-TEV-Q203-Y477; Uniprot ID P37231-2), 2 nM WT RXRA LBD or mutant S427F RXRA LBD (E. coli expressed, Flag-TEV-E228-T462; […]. Mixtures were incubated for 3 hours and read in an EnVision plate reader (Perkin Elmer) with Ex/Em 615/665. To determine the potency (EC50) and extent of NCOR1 recruitment, TR-FRET ratios were normalized to the average ratio of DMSO control wells (0%) and to the average maximum ratio for positive control compound (T0070907 (2-chloro-5-nitro-N-4-pyridinyl-benzamide); defined as 100%) in CDD Vault and analyzed using the Levenberg-Marquardt algorithm.
T1 sequence (O75376 2251-2273 partner, one chain of several): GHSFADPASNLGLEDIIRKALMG

[2] = molecular target: T2, PPARG/RXRA LBD heterodimer (Homo sapiens, UniProt P37231); experiment: PPARγ-MED1 blockade assay (TR-FRET, biotinylated MED1 LxxLL peptide); format: biochemical; conditions: WT PPARG LBD/WT RXRA LBD, 80 nM Rosiglitazone, 3 hours
T2 construct: His-TEV-Q203-Y477; Uniprot ID P37231-2; made in house; host or cells: E. coli
T2 sequence (P37231 203-477 isoform P37231-2): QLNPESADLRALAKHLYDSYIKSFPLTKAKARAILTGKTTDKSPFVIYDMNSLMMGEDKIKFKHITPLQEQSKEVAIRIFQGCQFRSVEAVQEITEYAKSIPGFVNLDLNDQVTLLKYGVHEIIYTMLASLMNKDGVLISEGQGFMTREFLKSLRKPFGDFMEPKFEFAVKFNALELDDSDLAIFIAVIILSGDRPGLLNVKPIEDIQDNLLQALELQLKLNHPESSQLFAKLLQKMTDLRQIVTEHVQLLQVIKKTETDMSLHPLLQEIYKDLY
T2 sequence (P19793 228-462 partner limits assumed): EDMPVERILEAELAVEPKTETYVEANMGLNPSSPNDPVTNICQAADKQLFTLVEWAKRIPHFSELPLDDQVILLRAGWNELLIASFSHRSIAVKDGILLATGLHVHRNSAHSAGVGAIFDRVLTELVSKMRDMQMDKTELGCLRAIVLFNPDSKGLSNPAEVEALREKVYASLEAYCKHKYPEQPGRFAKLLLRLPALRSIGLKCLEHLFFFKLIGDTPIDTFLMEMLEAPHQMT
Description: PPARγ-MED1 Blockade Assay:
Compound potency (IC50) and maximal extent of MED1 repulsion to PPARG were assessed a TR-FRET binding assay measuring association of a biotinylated MED1 LxxLL peptide (Biotin-[…]-amide) to PPARG/RXRA LBD heterodimer. Specifically, a 20 microliters of TR-FRET master mix consisting of 2 nM WT PPARG LBD (E. coli expressed, His-TEV-Q203-Y477; Uniprot ID P37231-2), 2 nM WT RXRA LBD (E. coli expressed, Flag-TEV-E228-T462; […]. Mixtures were incubated for 3 hours and read in an EnVision plate reader (Perkin Elmer) with Ex/Em 615/665. To determine the potency (IC50) and extent of MED1 repulsion, TR-FRET ratios were normalized to the average ratio of DMSO control wells (0%) and to the average minimum ratio for positive control compound (GW9662 (2-chloro-5-nitrobenzanilide); defined as 100%) in CDD Vault and analyzed using the Levenberg-Marquardt algorithm.

[3] = tested on: ANGPTL4, a PPARG target gene, in HT1197 (RXRA S427F mutation) cells; experiment: Bladder cancer pharmacodynamic assay, HT1197 cell assay (qPCR of ANGPTL4); format: cell-based; conditions: Homo sapiens, 24 hours, 100 nM compound, relative to DMSO control
Description: Bladder Cancer Pharmacodynamic Assay
5637 (PPARG amplified) and HT1197 (RXRA S427F mutation) cells were used for assessment of modulation of PPARG target genes using quantitative PCR. Cells were treated for 24 hours with PPARG inverse agonists prior to analysis of FABP4 (IDT, Cat: Hs.PT 58.20106818) and ANGPTL4 (IDT, Cat: Hs.PT 58.25480012) expression, with expression of the housekeeping gene TBP (IDT, Cat: Hs.PT 58v.39858774) used to normalize expression across samples. Quantitative PCR was performed using an ABI QuantStudio 7 Flex Reaction system. Data were analyzed and reported relative to DMSO control using the comparative Ct method (ΔΔCt).

SMILES | EC50 [1] [nM] | EC50 [2] [nM] | inhibition at 0.1 µM [3] [%]
N#Cc1ccc(F)c(-c2cc(=O)c3c(F)cc(F)cc3[nH]2)c1 [Example 3, 3-(5,7-difluoro-4-oxo-1,4-dihydroquinolin-2-yl)-4-fluorobenzonitrile] | 1000 to 10000 | 1000 to 10000 | 
Cc1cc2[nH]c(-c3cc(C#N)ccc3Cl)cc(=O)c2cc1C#N [Example 9, 2-(2-chloro-5-cyanophenyl)-7-methyl-4-oxo-1,4-dihydroquinoline-6-carbonitrile] | 1000 to 10000 | 1000 to 10000 | 
N#Cc1ccc(Cl)c(-c2cc(=O)c3c(F)c(F)ccc3[nH]2)c1 [Example 10, 4-chloro-3-(5,6-difluoro-4-oxo-1,4-dihydroquinolin-2-yl)benzonitrile] | > 10000 | 1000 to 10000 | 
O=c1cc(-c2cc([N+](=O)[O-])ccc2Cl)[nH]c2ccccc12 [Example 14, 2-(2-chloro-5-nitrophenyl)quinolin-4(1H)-one] | < 10 | < 10 | 38
Cc1c(F)cc2[nH]c(-c3cc(C#N)ccc3Cl)cc(=O)c2c1F [Example 15, 4-chloro-3-(5,7-difluoro-6-methyl-4-oxo-1,4-dihydroquinolin-2-yl)benzonitrile] | 100 to 1000 | 10 to 100 | 89
COc1cc(F)c2c(=O)cc(-c3cc(C#N)ccc3Cl)[nH]c2c1 [Example 22, 4-chloro-3-(5-fluoro-7-methoxy-4-oxo-1,4-dihydroquinolin-2-yl)benzonitrile] | 100 to 1000 | 100 to 1000 | 29
N#Cc1ccc(Cl)c(-c2cc(=O)c3c(F)c(-c4ccncc4)c(F)cc3[nH]2)c1 [Example 23, 4-chloro-3-(5,7-difluoro-4-oxo-6-(pyridin-4-yl)-1,4-dihydroquinolin-2-yl)benzonitrile] | 100 to 1000 | 100 to 1000 | 55
Cc1c(F)c(F)cc2[nH]c(-c3cc(C#N)ccc3Cl)cc(=O)c12 [Example 24, 4-chloro-3-(6,7-difluoro-5-methyl-4-oxo-1,4-dihydroquinolin-2-yl)benzonitrile] | 100 to 1000 | 100 to 1000 | 69
N#Cc1ccc(Cl)c(-c2cc(=O)c3c(F)c(-n4cccn4)c(F)cc3[nH]2)c1 [Example 25, 4-chloro-3-(5,7-difluoro-4-oxo-6-(1H-pyrazol-1-yl)-1,4-dihydroquinolin-2-yl)benzonitrile] | 1000 to 10000 | 1000 to 10000 | 22
CNC(=O)c1c(F)cc2[nH]c(-c3cc(C#N)ccc3Cl)cc(=O)c2c1F [Example 26, 2-(2-chloro-5-cyanophenyl)-5,7-difluoro-N-methyl-4-oxo-1,4-dihydroquinoline-6-carboxamide] | > 10000 | 1000 to 10000 | 21
N#Cc1ccc(Cl)c(-c2[nH]c3cc(F)cc(F)c3c(=O)c2Cl)c1 [Example 119, 4-chloro-3-(3-chloro-5,7-difluoro-4-oxo-1,4-dihydroquinolin-2-yl)benzonitrile] | > 10000 | > 10000 | 

More lines, main results first:

EC50 [1] [nM] | EC50 [2] [nM] | SMILES | inhibition at 0.1 µM [3] [%]
100 to 1000 | 100 to 1000 | N#Cc1ccc(Cl)c(-c2cc(=O)c3c(Cl)cc(Cl)cc3[nH]2)c1 [Example 7, 4-chloro-3-(5,7-dichloro-4-oxo-1,4-dihydroquinolin-2-yl)benzonitrile] | 90
> 10000 | > 10000 | N#Cc1ccc(Cl)c(-c2cc(=O)c3cc(F)cc(F)c3[nH]2)c1 [Example 8, 4-chloro-3-(6,8-difluoro-4-oxo-1,4-dihydroquinolin-2-yl)benzonitrile] | 
> 10000 | 1000 to 10000 | N#Cc1ccc(Cl)c(-c2cc(=O)c3cc(C#N)c(C(F)(F)F)cc3[nH]2)c1 [Example 12, 2-(2-chloro-5-cyanophenyl)-4-oxo-7-(trifluoromethyl)-1,4-dihydroquinoline-6-carbonitrile] | 
1000 to 10000 | 1000 to 10000 | N#Cc1ccc(Cl)c(-c2cc(=O)c3ccccc3[nH]2)c1 [Example 13, 4-chloro-3-(4-oxo-1,4-dihydroquinolin-2-yl)benzonitrile] | 17
100 to 1000 | 100 to 1000 | N#Cc1ccc(Cl)c(-c2cc(=O)c3c(F)cc(Cl)cc3[nH]2)c1 [Example 16, 4-chloro-3-(7-chloro-5-fluoro-4-oxo-1,4-dihydroquinolin-2-yl)benzonitrile] | 88
1000 to 10000 | 1000 to 10000 | N#Cc1ccc(Cl)c(-c2cc(=O)c3c(F)c(F)c(F)cc3[nH]2)c1 [Example 17, 4-chloro-3-(5,6,7-trifluoro-4-oxo-1,4-dihydroquinolin-2-yl)benzonitrile] | 66
100 to 1000 | 100 to 1000 | N#Cc1ccc(Cl)c(-c2cc(=O)c3c(Cl)cc(F)cc3[nH]2)c1 [Example 18, 4-chloro-3-(5-chloro-7-fluoro-4-oxo-1,4-dihydroquinolin-2-yl)benzonitrile] | 83
1000 to 10000 | 1000 to 10000 | CN1CCN(c2c(F)cc3[nH]c(-c4cc(C#N)ccc4Cl)cc(=O)c3c2F)CC1 [Example 19, 4-chloro-3-(5,7-difluoro-6-(4-methylpiperazin-1-yl)-4-oxo-1,4-dihydroquinolin-2-yl)benzonitrile] | 75
100 to 1000 | 100 to 1000 | N#Cc1ccc(Cl)c(-c2cc(=O)c3c(F)c(N4CCN(CC(F)(F)F)CC4)c(F)cc3[nH]2)c1 [Example 20, 4-chloro-3-(5,7-difluoro-4-oxo-6-(4-(2,2,2-trifluoroethyl)piperazin-1-yl)-1,4-dihydroquinolin-2-yl)benzonitrile] | 91
1000 to 10000 | 1000 to 10000 | COc1cc(F)cc2[nH]c(-c3cc(C#N)ccc3Cl)cc(=O)c12 [Example 21, 4-chloro-3-(7-fluoro-5-methoxy-4-oxo-1,4-dihydroquinolin-2-yl)benzonitrile] | 87
1000 to 10000 | 1000 to 10000 | N#Cc1ccc(Cl)c(-c2cc(=O)c3c(F)c(N4CCCC4=O)c(F)cc3[nH]2)c1 [Example 27, 4-chloro-3-(5,7-difluoro-4-oxo-6-(2-oxopyrrolidin-1-yl)-1,4-dihydroquinolin-2-yl)benzonitrile] | 47
100 to 1000 | 100 to 1000 | N#Cc1ccc(Cl)c(-c2cc(=O)c3c(F)c(Br)c(F)cc3[nH]2)c1 [Example 33, 3-(6-bromo-5,7-difluoro-4-oxo-1,4-dihydroquinolin-2-yl)-4-chlorobenzonitrile] | 
100 to 1000 | 100 to 1000 | N#Cc1ccc(Cl)c(-c2cc(=O)c3c(F)cc(C(F)(F)F)cc3[nH]2)c1 [Example 91, 4-chloro-3-(5-fluoro-4-oxo-7-(trifluoromethyl)-1,4-dihydroquinolin-2-yl)benzonitrile] | 
> 10000 | > 10000 | N#Cc1ccc(Cl)c(-c2[nH]c3cc(F)cc(F)c3c(=O)c2F)c1 [Example 118, 4-chloro-3-(3,5,7-trifluoro-4-oxo-1,4-dihydroquinolin-2-yl)benzonitrile] | 
